Read-outs that look alike come from different tables or passages of the source.
Tests used:
[1] = system: cellular pERK in MIA-PaCa-2 (KRAS-G12C) cell-line; assay: Cell based pERK assay (HTRF), MIA-PaCa-2; conditions: MIA-PaCa-2 (KRAS-G12C) cells, 2 hours incubation, read-out: MIAPaCa2 pERK EC50
Protocol: (§1) Compounds were tested in a 384-well assay format for their ability to inhibit cellular pERK in Kuramochi (WT KRAS), MIA-PaCa-2 (KRAS-G12C), ASPC-1 (KRAS G12D), and NCI-H441 (KRAS-G12V) cell-lines. Compounds were serially diluted (1:3) in DMSO. On day −1, 80 uL of cells were plated per well in the 384 well tissue-culture plates (Greiner: Cat #781080) to seed 5000 cells per wells of AsPC-1 or 7500 cells of MIA-PaCa-2, NCI-H441, and Kuramochi cell lines in RPMI (Corning: Cat #10-040-CM) with 10% fetal bovine serum (FBS) (HyClone: Cat #SH30071-03) and 1× penicillin-streptomycin-glutamate (PSG) (Corning: Cat #30-009-CI) for […] and Kuramochi cell lines and DMEM (Corning: Cat #15-018-CM) with […] and 1× PSG for MKA-PaCa-2 cell line. The plates were then incubated overnight at 37° C. and 5% CO2. On day 0, 400 nL of compound/well was added into the cell plates and mixed 5 times by pipetting using a Beckmann Biomek FX. The cell plates were then incubated for 2 hours at 37° C. and 5% CO2. HTRF Advanced Phospho-ERK1/2 ([…]) Detection Kits (PerkinElmer: Cat #64AERPEG) were used to prepare the lysis and detection solution according to manufacturer protocol. Following the 2 hour incubation, 70 μL of medium was aspirated from the plates and 10 uL of lysis and detection solution was added to the plates using a Biotek EL406 washer and dispenser. Plates were sealed and stored overnight at room temperature. HTRF ratio (665 nm/615 nm) was read by Envision multimode reader (PerkinElmer) the next day. The TR-FRET ratios were normalized to a positive (saturating concentration of known inhibitor) and negative (DMSO) control and plotted against the log of compound concentration. IC50 values were defined as the compound concentration that causes a […] in normalized signal and were calculated using a sigmoidal dose-response model to generate curve fits.

[2] = system: cellular pERK in NCI-H441 (KRAS-G12V) cell-line; assay: Cell based pERK assay (HTRF), NCI-H441; conditions: NCI-H441 (KRAS-G12V) cells, 2 hours incubation
Protocol: as §1

[3] = system: cellular pERK in Kuramochi (WT KRAS) cell-line; assay: Cell based pERK assay (HTRF), Kuramochi; conditions: Kuramochi (WT KRAS) cells, 2 hours incubation
Protocol: as §1

[4] = system: cellular pERK in ASPC-1 (KRAS G12D) cell-line; assay: Cell based pERK assay (HTRF), ASPC-1; conditions: ASPC-1 (KRAS G12D) cells, 2 hours incubation
Protocol: as §1

Row | EC50 ([1]; Homo sapiens) | EC50 ([2]; Homo sapiens) | EC50 [3] | EC50 ([4]; Homo sapiens, ASPC1) | EC50 [1] | EC50 [2] | EC50 ([4]; read-out: AsPC1 pERK EC50) | Structure (SMILES)
1 | 4.01 nM | 6.23 nM | 3.44 nM | 25.8 nM | – | – | – | C#Cc1c(F)ccc2cc(N)cc(-c3nc4c5c(nc(OC[C@@]67CCCN6[C@H](CF)CC7)nc5c3F)N3CCCOC[C@@H]3CC4)c12 [Example 7-2]
2 | 9.14 nM | 20 nM | 6.12 nM | 118 nM | – | – | – | C#Cc1c(F)ccc2cc(N)cc(-c3nc4c5c(nc(OCC67CCCN6CCC7)nc5c3F)N3CCCOC[C@@H]3CC4)c12 [Example 7-3]
3 | 72.3 nM | > 1000 nM | 41.1 nM | 125 nM | – | – | – | C#Cc1c(F)ccc2cc(N)cc(-c3nc4c5c(nc(OC[C@@]67CCCN6C[C@H](F)C7)nc5c3F)N3CCCOC[C@H]3C=C4C)c12 [Example 7-8]
4 | 9.04 nM | 16.9 nM | 7.23 nM | 54.9 nM | – | – | – | C#Cc1c(F)ccc2cc(N)cc(-c3nc4c5c(nc(OC[C@@]67CCCN6C[C@H](F)C7)nc5c3F)N3CCCOC[C@@H]3C[C@H]4C)c12 [Example 7-9]
5 | 218 nM | > 535 nM | 208 nM | > 697 nM | – | – | – | C#Cc1c(F)ccc2cc(N)cc(-c3nc4c5c(nc(OC[C@@]67CCCN6C[C@H](F)C7)nc5c3F)N3CCCOC[C@@H]3C[C@@H]4C)c12 [Example 7-10]
6 | – | – | 3.19 nM | – | 7.72 nM | 13 nM | 42.4 nM | CCc1c(F)ccc2cc(O)cc(-c3nc4c5c(nc(OC[C@@]67CCCN6C[C@H](F)C7)nc5c3F)N3CCOCCC3CC4)c12 (stereo partly drawn) [Example 8-1, 5-ethyl-6-fluoro-4-(1-fluoro-12-(((2R,7a5)-2-fluorotetrahydro-1H-pyrrolizin-7a(5H)-yl)methoxy)-5,5a,6,7,9,10-hexahydro-4H-8-oxa-3,10a,11,13-tetraazanaphtho[1,8-ab]heptalen-2-yl)naphthalen-2-ol]
7 | 13.8 nM | 21 nM | 8.04 nM | 23.6 nM | – | – | – | CCc1c(F)ccc2cc(O)cc(-c3nc4c5c(nc(OC[C@@]67CCCN6C[C@H](F)C7)nc5c3F)N3CCCOCC3CC4)c12 (some centres unmarked) [Example 8-2]
8 | 1.57 nM | 3.8 nM | 1.91 nM | 9.88 nM | – | – | – | CCc1c(F)ccc2cc(O)cc(-c3nc4c5c(nc(OC[C@@]67CCCN6C[C@H](F)C7)nc5c3F)N3CCCOC[C@@H]3CC4)c12 [Example 8-3]
9 | 682 nM | 916 nM | 401 nM | 931 nM | – | – | – | C#Cc1c(F)ccc2cc(O)cc(-c3nc4c5c(nc(OC[C@@]67CCCN6C[C@H](F)C7)nc5c3F)N3CCCCC[C@H]3CC4)c12 [Example 12-1, 5-ethynyl-6-fluoro-4-((S)-1-fluoro-12-(((2R,7aS)-2-fluorotetrahydro-1H-pyrrolizin-7a(5H)-yl)methoxy)-4,5,5a,6,7,8,9,10-octahydro-3,10a,11,13-tetraazanaphtho[1,8-ab]heptalen-2-yl)naphthalen-2-ol]
10 | – | – | 117 nM | – | 319 nM | 380 nM | > 1000 nM | C#Cc1c(F)ccc2cc(O)cc(-c3nc4c5c(nc(OC[C@@]67CCCN6C[C@H](F)C7)nc5c3F)N3CCCCC3(C)CC4)c12 (stereo partly drawn) [Example 13-1, 5-ethynyl-6-fluoro-4-(1-fluoro-11-(((2R,7aS)-2-fluorotetrahydro-11H-pyrrolizin-7a(5H)-yl)methoxy)-5a-methyl-5,5a,6,7,8,9-hexahydro-4H-3,9a,10,12-tetraazabenzo[4,5]cyclohepta[1,2,3-de]naphthalen-2-yl)naphthalen-2-ol]
11 | – | – | 517 nM | – | > 1000 nM | > 1000 nM | > 1000 nM | CCc1c(F)ccc2cc(O)cc(-c3nc4c5c(nc(OC[C@@]67CCCN6C[C@H](F)C7)nc5c3F)N3CCCCC3(C)CC4)c12 (stereo partly drawn) [Example 14-1, 5-ethyl-6-fluoro-4-(1-fluoro-11-(((2R,7aS)-2-fluorotetrahydro-1H-pyrrolizin-7a(5H)-yl)methoxy)-5a-methyl-5,5a,6,7,8,9-hexahydro-4H-3,9a,10,12-tetraazabenzo[4,5]cyclohepta[1,2,3-de]naphthalen-2-yl)naphthalen-2-ol]

The remaining lines, values behind:

Row | Structure (SMILES) | EC50 ([1]; Homo sapiens) | EC50 ([2]; Homo sapiens) | EC50 [3] | EC50 ([4]; Homo sapiens, ASPC1) | EC50 [1] | EC50 [2] | EC50 ([4]; read-out: AsPC1 pERK EC50)
12 | C#Cc1c(F)ccc2cccc(-c3nc4c5c(nc(OC[C@@]67CCCN6C[C@H](F)C7)nc5c3F)N3CCCOC[C@@H]3CC4)c12 [Example 6-7] | 328 nM | 825 nM | 384 nM | > 1000 nM | – | – | –
13 | C#Cc1c(F)ccc2cccc(-c3nc4c5c(nc(OCC67CCCN6CCC7)nc5c3F)N3CCCOC[C@@H]3CC4)c12 [Example 6-9] | 430 nM | 729 nM | 376 nM | > 1000 nM | – | – | –
14 | C#Cc1c(F)ccc2cccc(-c3nc4c5c(nc(OC[C@@]67CCCN6[C@H](CF)CC7)nc5c3F)N3CCCOC[C@@H]3CC4)c12 [Example 6-10] | 280 nM | 460 nM | 289 nM | 706 nM | – | – | –
15 | C#Cc1c(F)ccc2cc(O)cc(-c3nc4c5c(nc(OCC67CCCN6CCC7)nc5c3F)N3CCCOC[C@@H]3CC4)c12 [Example 6-11] | 1.68 nM | 8.06 nM | 16.6 nM | 24.4 nM | – | – | –
16 | C#Cc1c(F)ccc2cc(O)cc(-c3nc4c5c(nc(OC[C@@]67CCCN6C[C@H](F)C7)nc5c3F)N3CC5(COCC3CC4)OCCO5)c12 (some centres unmarked) [Example 6-16] | 265 nM | > 1000 nM | 78.5 nM | > 1000 nM | – | – | –
17 | C#Cc1c(F)ccc2cc(O)cc(-c3nc4c5c(nc(OC[C@@]67CCCN6C[C@H](F)C7)nc5c3F)N3CCCOC[C@@H]3C=C4C)c12 [Example 6-18] | 0.28 nM | 0.56 nM | 1.99 nM | 0.61 nM | – | – | –
18 | C#Cc1c(F)ccc2cc(O)cc(-c3nc4c5c(nc(OC[C@@]67CCCN6C[C@H](F)C7)nc5c3F)N3CCCOC[C@@H]3C=C4)c12 [Example 6-19] | 0.47 nM | 1.15 nM | 4.01 nM | 1.18 nM | – | – | –
19 | C#Cc1c(F)ccc2cc(O)cc(-c3nc4c5c(nc(O[C@@H](C)[C@@H]6CCCN6C)nc5c3F)N3CCCOC[C@@H]3CC4)c12 [Example 6-24] | 448 nM | 397 nM | 48.4 nM | > 1000 nM | – | – | –
20 | C#Cc1c(F)ccc2cc(O)cc(-c3nc4c5c(nc(OC[C@@]67CCCN6[C@H](COC(=O)N(C)C)CC7)nc5c3F)N3CCCOC[C@@H]3CC4)c12 [Example 6-25] | 3.87 nM | 4.57 nM | 17.9 nM | 9.84 nM | – | – | –
21 | C#Cc1c(F)c(F)cc2cc(O)cc(-c3nc4c5c(nc(OC[C@@]67CCCN6C[C@H](F)C7)nc5c3F)N3CCCOC[C@@H]3CC4)c12 [Example 6-26] | 1.59 nM | 4.04 nM | 2.61 nM | 1.19 nM | – | – | –
22 | C#Cc1c(F)ccc2cc(O)cc(-c3nc4c5c(nc(OC[C@@]67CCCN6C[C@H](F)C7)nc5c3F)N3CCCOC[C@@H]3C[C@@H]4F)c12 [Example 6-27] | 17.4 nM | 58.7 nM | 28.8 nM | 97.1 nM | – | – | –
23 | C#Cc1c(F)ccc2cc(O)cc(-c3nc4c5c(nc(OC[C@@]67CCCN6C[C@H](F)C7)nc5c3F)N3CCC(O)CC[C@@H]3CC4)c12 (some centres unmarked) [Example 6-29] | 23.8 nM | 452 nM | 46.3 nM | 741 nM | – | – | –

— US20240383922A1, “KRAS Modulating Compounds” (Gilead Sciences, Inc., priority 2023, published 2024)
